Patent US6524789B1, “Human neuronal nicotinic acetylcholine receptor compositions and methods employing same” (Merck & Co., Inc., priority 1995, dated 2003)

What was measured:
[1] = tested on: PC12; test: 86Rb ion-flux assay, positive control cells PC12; format: cell-based; conditions: Rattus norvegicus, PC-12, antagonist, 86Rb influx
Procedure: The ^86Rb ion-flux assay is conducted as follows:
1. The night before the experiment, cells are plated at 2×10^6 per well (i.e., 2 ml per well) in a 6-well polylysine-coated plate.
2. The culture medium is decanted and the plate washed with 2 ml of assay buffer (50 mM HEPES, 260 mM sucrose, 5.4 mM KCl, 1.8 mM CaCl2, 0.8 mM MgSO4, 5.5 mM glucose) at room temperature.
3. The assay buffer is decanted and 1 ml of assay buffer, containing 3 μCi/ml ^86Rb, with 5 mM ouabain and agoinist or antagonist in a concentration to effect a maximum response, is added.
4. The plate is incubated on ice at 1° C. for 4 min.
5. The buffer is decanted into a waste container and each well was washed with 3 ml of assay buffer, followed by two washes of 2 ml each.
6. The cells are lysed with 2×0.5 ml of 0.2% SDS per well and transferred to a scintillation vial containing 5 ml of scintillation fluid.
7. The radioactivity contained in each vial 5 is measured and the data calculated.

[2] = biological target: T1, functional recombinant nAChR (Homo sapiens, UniProt Q15825); format: cell-based
T1 construct: A 1,743 bp EcoRI fragment, encoding a full-length nAChR α6 subunit, was isolated from KEα6.3; expressed in transfected cells; host or cells: HEK 293 cells, transiently or stably co-transfected
T1 sequence (Q15825 31-494): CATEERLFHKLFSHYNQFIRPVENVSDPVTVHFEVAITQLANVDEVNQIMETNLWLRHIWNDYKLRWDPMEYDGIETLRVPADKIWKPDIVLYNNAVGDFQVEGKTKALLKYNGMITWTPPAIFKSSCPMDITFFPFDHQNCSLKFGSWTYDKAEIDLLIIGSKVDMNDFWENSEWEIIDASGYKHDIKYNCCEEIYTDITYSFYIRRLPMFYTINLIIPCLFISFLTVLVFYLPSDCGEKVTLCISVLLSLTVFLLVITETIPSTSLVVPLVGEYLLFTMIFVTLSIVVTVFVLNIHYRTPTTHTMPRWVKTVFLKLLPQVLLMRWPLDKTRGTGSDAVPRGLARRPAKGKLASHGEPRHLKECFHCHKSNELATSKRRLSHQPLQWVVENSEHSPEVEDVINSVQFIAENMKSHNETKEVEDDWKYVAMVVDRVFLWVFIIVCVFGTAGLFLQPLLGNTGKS
T1 sequence (Q05901 25-458 partner limits assumed): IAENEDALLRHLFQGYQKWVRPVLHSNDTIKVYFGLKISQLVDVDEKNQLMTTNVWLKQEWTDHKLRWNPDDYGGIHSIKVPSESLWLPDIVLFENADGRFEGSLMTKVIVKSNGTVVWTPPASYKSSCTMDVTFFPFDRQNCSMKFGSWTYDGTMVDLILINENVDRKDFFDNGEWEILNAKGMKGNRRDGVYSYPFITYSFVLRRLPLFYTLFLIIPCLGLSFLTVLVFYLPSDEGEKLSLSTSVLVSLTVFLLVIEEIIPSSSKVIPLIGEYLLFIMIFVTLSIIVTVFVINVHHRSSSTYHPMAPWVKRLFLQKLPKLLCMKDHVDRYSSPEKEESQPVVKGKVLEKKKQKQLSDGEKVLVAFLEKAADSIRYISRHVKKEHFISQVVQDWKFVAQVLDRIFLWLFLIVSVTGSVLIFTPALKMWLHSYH
Source text: Activation of the ligand-gated nAChR by agonists leads to an influx of cations, including Ca^++, through the receptor channel. Ca^++ entry into the cell through the channel can induce release of calcium contained in intracellular stores. Monovalent cation entry into the cell through the channel can also result in an increase in cytoplasmic Ca^++ levels through depolarization of the membrane and subsequent activation of voltage-dependent calcium channels. Therefore, methods of detecting transient increases in intracellular calcium concentration can be applied to the analysis of functional nicotinic nAChR expression. One method for measuring intracellular calcium levels relies on calcium-sensitive fluorescent indicators.
Calcium-sensitive indicators, such as fluo-3 (Catalog No. F01241, Molecular Probes, Inc., Eugene, Oreg.), are available as acetoxymethyl esters which are membrane permeable. […] Interaction of the free indicator with calcium results in increased fluorescence of the indicator; therefore, an increase in the intracellular Ca^2+ concentration of cells containing the indicator can be expressed directly as an increase in fluorescence.
HEK cells that are transiently or stably co-transfected with DNA encoding appropriate α and/or β subunits and α6 and β3 subunits are analyzed for expression of functional recombinant nAChR using the automated fluorescent indicator-based assay. […]

[3] = tested on: untransfected HEK cells; conditions: fluo-3, 200 μM nicotine
Procedure: HEK cells that are transiently or stably co-transfected with DNA encoding appropriate α and/or β subunits and α6 and β3 subunits are analyzed for expression of functional recombinant nAChR using the automated fluorescent indicator-based assay. The assay procedure is as follows. Untransfected HEK cells and HEK cells co-transfected with DNA encoding the appropriate α and β subunits are plated in the wells of a 96-well microtiter dish and loaded with fluo-3 by incubation for 2 hours at 20° C. in a medium containing 20 μM fluo-3, 0.2% Pluronic F-127 in HBS (125 mM NaCl, 5 mM KCl, 1.8 mM CaCl2, 0.62 mM MgSO4, 6 mM glucose, 20 mM HEPES, pH 7.4). The cells are then washed with assay buffer (i.e., HBS). The antagonist d-tubocurarine is added to some of the wells at a final concentration of 10 μM.

## CN1[C@@H]2CC[C@H]1C[C@@H](OC(=O)C(CO)c1ccccc1)C2 (stereo partly shown) [atropine]
[1]
  EC50: 12.5 µM

## COc1cc2c3cc1Oc1cc(ccc1O)C[C@@H]1c4c(cc(OC)c(O)c4Oc4ccc(cc4)C[C@@H]3N(C)CC2)CC[N+]1(C)C [d-tubocurarine]
[2]; co-transfected HEK cells, 10 μM d-tubocurarine, 200 μM nicotine
  nicotine-stimulated increase in fluorescence in cells exposed to antagonist: not observed

## CN1CCCC1c1cccnc1 (stereo not shown) [nicotine]
[2]
  fluorescence after addition of nicotine: increases dramatically
[3]
  fluorescence after addition of nicotine: does not change
